Test results published in the supplement of paper PMC10307832.

How the values were obtained:
Assay in all cases: relative viability (nuclei count vs DMSO), 5 days (fraction); higher = more cells survive
[1] = compound: CC(O)(CS(=O)(=O)c1ccc(F)cc1)C(=O)Nc1ccc(C#N)c(C(F)(F)F)c1 [Bicalutamide] + CC(=O)c1c(C)c2cnc(Nc3ccc(N4CCNCC4)cn3)nc2n(C2CCCC2)c1=O [Palbociclib] (partner 0.5 µM)
Procedure, shortened: (§1)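 Lung cancer cell lines, seeded in 1536-well plates, were treated the following day by pin tool with a single drug or with five library-drug doses (not always all listed) in √10 steps on top of a fixed anchor-drug dose. Cells were fixed and nuclei stained in one step after 5 days, and nuclei were counted. Relative viability is the nuclei count for treated wells divided by that for vehicle wells, reported as medians of duplicate plates.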

[2] = compound: CC(O)(CS(=O)(=O)c1ccc(F)cc1)C(=O)Nc1ccc(C#N)c(C(F)(F)F)c1 [Bicalutamide] + Cc1cc(Nc2cc(N3CCN(C)CC3)nc(Sc3ccc(NC(=O)C4CC4)cc3)n2)n[nH]1 [Tozasertib] (partner 0.1 µM)
Procedure, shortened: as §1

[3] = compound: CC(O)(CS(=O)(=O)c1ccc(F)cc1)C(=O)Nc1ccc(C#N)c(C(F)(F)F)c1 [Bicalutamide] + Cc1nc(NC(=O)N2CCC[C@H]2C(N)=O)sc1-c1ccnc(C(C)(C)C(F)(F)F)c1 [Alpelisib] (partner 2 µM)
Procedure, shortened: as §1

[4] = compound: CC(O)(CS(=O)(=O)c1ccc(F)cc1)C(=O)Nc1ccc(C#N)c(C(F)(F)F)c1 [Bicalutamide] + N=C(N)NC(=N)NCCc1ccccc1 [Phenformin] (partner 250 µM)
Procedure, shortened: as §1

Cell Line	relative viability ([1]; first compound 0.08 µM)	relative viability ([1]; first compound 0.253 µM)	relative viability ([1]; first compound 0.8 µM)	relative viability ([1]; first compound 2.53 µM)	relative viability ([2]; first compound 0.08 µM)	relative viability ([2]; first compound 0.253 µM)	relative viability ([2]; first compound 0.8 µM)	relative viability ([2]; first compound 2.53 µM)	relative viability ([3]; first compound 0.08 µM)	relative viability ([3]; first compound 0.253 µM)	relative viability ([3]; first compound 0.8 µM)	relative viability ([3]; first compound 2.53 µM)	relative viability ([4]; first compound 0.08 µM)	relative viability ([4]; first compound 0.253 µM)	relative viability ([4]; first compound 0.8 µM)	relative viability ([4]; first compound 2.53 µM)
NCI-H1944	0.335	0.299	0.354	0.323	0.246	0.232	0.256	0.257	0.852	0.737	0.869	0.851	0.216	0.181	0.238	0.217
NCI-H1975	0.627	0.532	0.688	0.492	0.785	0.711	0.745	0.514	0.642	0.615	0.795	0.526	0.4	0.409	0.442	0.37
NCI-H1993	0.642	0.513	0.793	0.772	0.567	0.581	0.727	0.629		0.693	0.708	0.717	0.437	0.51	0.434	0.447
NCI-H2009	0.241	0.246	0.252	0.255	0.777	0.664	0.723	0.649	1.25	1.14	1.13	1.18	0.504	0.491	0.469	0.423
NCI-H2023	0.406	0.373	0.408	0.286	0.448	0.376	0.306	0.249	0.593	0.59	0.555	0.608	0.447	0.315	0.456	0.454
NCI-H2085	0.494	0.465	0.478	0.468	0.913	0.81	0.805	0.804	0.895	1.04	0.958	0.879	0.742	0.686	0.781	0.608
NCI-H2087	0.222	0.272	0.237	0.24	0.234	0.226	0.262	0.219	1.22	0.843	1.16	1.13	0.539	0.449	0.642	0.435
NCI-H2126	0.339	0.339	0.344	0.32	0.939	0.811	0.944	0.75	0.742	0.707	0.76	0.74	0.519	0.528	0.55	0.49
NCI-H2170	0.378	0.34	0.438	0.397	0.728	0.696	0.716	0.739	0.834	0.767	0.853	0.842	0.418	0.412	0.429	0.47
NCI-H2228	0.797	0.775	0.745	0.779	0.208	0.349	0.202	0.253	0.779	0.805	0.908	0.58	0.356	0.371	0.58	0.291
